Patent publication US6977260B2, “Piperidinyl prostaglandin E analogs” (Allergan, Inc., priority 2004, dated 2005)

Legend:
Assay type in all cases: cell-based
Details in all cases: HEK-293-EBNA stable transfectants
hTP = target: T1, hTP (Homo sapiens, UniProt P21731); experiment: Functional data, human recombinant TP receptor stable transfectants
T1 construct: expressed in transfected cells; host or cells: HEK-293-EBNA
T1 sequence (P21731 1-343): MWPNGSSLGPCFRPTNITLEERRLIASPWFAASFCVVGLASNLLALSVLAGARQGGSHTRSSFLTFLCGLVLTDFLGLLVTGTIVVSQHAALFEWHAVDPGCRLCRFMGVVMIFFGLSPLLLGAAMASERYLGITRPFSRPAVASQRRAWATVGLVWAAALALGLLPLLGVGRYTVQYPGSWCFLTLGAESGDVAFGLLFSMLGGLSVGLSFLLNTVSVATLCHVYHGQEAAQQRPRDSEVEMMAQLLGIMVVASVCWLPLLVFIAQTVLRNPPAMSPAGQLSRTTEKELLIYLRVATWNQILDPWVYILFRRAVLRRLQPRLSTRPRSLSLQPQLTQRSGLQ
Experimental: (§1) Human Recombinant EP1, EP2, EP3, EP4, FP, TP, IP and DP Receptors: Stable Transfectants.
(§2) Plasmids encoding the human EP1, EP2, EP3, EP4, FP, TP, IP and DP receptors were prepared by cloning the respective coding sequences into the eukaryotic expression vector pCEP4 (Invitrogen). The pCEP4 vector contains an Epstein Barr virus (EBV) origin of replication, which permits episomal replication in primate cell lines expressing EBV nuclear antigen (EBNA-1). It also contains a hygromycin resistance gene that is used for eukaryotic selection. The cells employed for stable transfection were human embryonic kidney cells (HEK-293) that were transfected with and express the EBNA-1 protein. These HEK-293-EBNA cells (Invitrogen) were grown in medium containing Geneticin (G418) to maintain expression of the EBNA-1 protein. HEK-293 cells were grown in DMEM with 10% fetal bovine serum (FBS), 250 μg ml^−1 G418 (Life Technologies) and 200 μg ml^−1 gentamicin or penicillin/streptomycin.
(§3) For transfection, the cells were grown to 50-60% confluency on 10 cm plates. The plasmid pCEP4 incorporating cDNA inserts for the respective human prostanoid receptor (20 μg) was added to 500 μl of 250 mM CaCl2. HEPES buffered saline×2 (2×HBS, 280 mM NaCl, 20 mM HEPES acid, 1.5 mM Na2 HPO4, pH 7.05-7.12) was then added dropwise to a total of 500 μl, with continuous-vortexing at room temperature. After 30 min, 9 ml DMEM were added to the mixture. The DNA/DMEM/calcium phosphate mixture was then added to the cells, which had been previously rinsed with 10 ml PBS. The cells were then incubated for 5 hr at 37° C. in humidified 95% air/5% CO2. The calcium phosphate solution was then removed and the cells were treated with 10% glycerol in DMEM for 2 min. The glycerol solution was then replaced by DMEM with 10% FBS. The cells were incubated overnight and the medium was replaced by DMEM/10% FBS containing 250 μg ml^−1 G418 and penicillin/streptomycin. The following day hygromycin B was added to a final concentration of 200 μg ml^−1.
(§4) Ten days after transfection, hygromycin B resistant clones were individually selected and transferred to a separate well on a 24 well plate. At confluence each clone was transferred to one well of a 6 well plate, and then expanded in a 10 cm dish. Cells were maintained under continuous hygromycin selection until use.

hEP4 = target: T2, hEP4 (Homo sapiens, UniProt P35408); experiment: Functional data, human recombinant EP4 receptor stable transfectants
T2 construct: expressed in transfected cells; host or cells: HEK-293-EBNA
T2 sequence (P35408 whole entry): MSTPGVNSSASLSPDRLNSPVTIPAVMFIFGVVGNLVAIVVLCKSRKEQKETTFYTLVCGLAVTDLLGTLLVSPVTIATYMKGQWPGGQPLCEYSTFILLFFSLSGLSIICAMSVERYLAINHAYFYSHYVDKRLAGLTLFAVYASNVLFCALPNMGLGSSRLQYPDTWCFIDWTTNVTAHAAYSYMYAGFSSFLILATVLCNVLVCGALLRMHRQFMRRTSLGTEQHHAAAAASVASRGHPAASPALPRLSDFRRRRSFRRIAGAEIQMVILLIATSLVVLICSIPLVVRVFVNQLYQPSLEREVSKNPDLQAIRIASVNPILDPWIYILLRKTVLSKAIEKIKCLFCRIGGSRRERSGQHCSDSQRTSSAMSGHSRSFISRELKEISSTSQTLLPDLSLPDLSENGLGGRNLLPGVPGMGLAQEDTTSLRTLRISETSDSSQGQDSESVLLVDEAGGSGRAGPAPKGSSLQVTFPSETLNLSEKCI
Experimental: as §1, §2, §3, §4

hEP1 = target: T3, hEP1 (Homo sapiens, UniProt P34995); experiment: Functional data, human recombinant EP1 receptor stable transfectants
T3 construct: expressed in transfected cells; host or cells: HEK-293-EBNA
T3 sequence (P34995 1-402): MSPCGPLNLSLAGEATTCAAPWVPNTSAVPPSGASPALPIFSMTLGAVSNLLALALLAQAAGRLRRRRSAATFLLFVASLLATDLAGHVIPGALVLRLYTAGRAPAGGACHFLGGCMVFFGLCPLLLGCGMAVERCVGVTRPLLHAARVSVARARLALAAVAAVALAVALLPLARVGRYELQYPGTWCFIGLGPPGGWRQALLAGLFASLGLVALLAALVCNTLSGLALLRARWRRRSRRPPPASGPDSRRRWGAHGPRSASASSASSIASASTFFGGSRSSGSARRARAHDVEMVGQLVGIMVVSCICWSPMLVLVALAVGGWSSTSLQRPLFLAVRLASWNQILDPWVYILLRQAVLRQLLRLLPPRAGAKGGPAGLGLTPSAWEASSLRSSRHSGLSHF
Experimental: as §1, §2
(§5) For transfection, the cells were grown to 50-60% confluency on 10 cm plates. The plasmid pCEP4 incorporating cDNA inserts for the respective human prostanoid receptor (20 μg) was added to 500 μl of 250 mM CaCl2. HEPES buffered saline×2 (2×HBS, 280 mM NaCl, 20 mM HEPES acid, 1.5 mM Na2 HPO4, pH 7.05-7.12) was then added dropwise to a total of 500 μl, with continuous-vortexing at room temperature. […]

hEP2 = target: T4, hEP2 (Homo sapiens, UniProt P43116); experiment: Functional data, human recombinant EP2 receptor stable transfectants
T4 construct: expressed in transfected cells; host or cells: HEK-293-EBNA
T4 sequence (P43116 whole entry): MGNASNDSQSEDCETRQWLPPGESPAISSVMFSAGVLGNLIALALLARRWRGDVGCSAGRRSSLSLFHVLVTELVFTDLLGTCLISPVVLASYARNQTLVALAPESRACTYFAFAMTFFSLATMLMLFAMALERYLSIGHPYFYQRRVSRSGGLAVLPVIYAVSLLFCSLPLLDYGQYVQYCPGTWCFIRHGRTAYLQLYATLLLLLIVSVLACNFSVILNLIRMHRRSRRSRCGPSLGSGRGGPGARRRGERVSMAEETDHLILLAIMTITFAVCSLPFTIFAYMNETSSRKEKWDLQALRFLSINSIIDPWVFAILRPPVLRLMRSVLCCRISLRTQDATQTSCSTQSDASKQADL
Experimental: as §1, §2, §5

hEP3A = target: T5, hEP3A (Homo sapiens, UniProt P43115); experiment: Functional data, human recombinant EP3 receptor stable transfectants
T5 construct: expressed in transfected cells; host or cells: HEK-293-EBNA
T5 sequence (P43115 1-390): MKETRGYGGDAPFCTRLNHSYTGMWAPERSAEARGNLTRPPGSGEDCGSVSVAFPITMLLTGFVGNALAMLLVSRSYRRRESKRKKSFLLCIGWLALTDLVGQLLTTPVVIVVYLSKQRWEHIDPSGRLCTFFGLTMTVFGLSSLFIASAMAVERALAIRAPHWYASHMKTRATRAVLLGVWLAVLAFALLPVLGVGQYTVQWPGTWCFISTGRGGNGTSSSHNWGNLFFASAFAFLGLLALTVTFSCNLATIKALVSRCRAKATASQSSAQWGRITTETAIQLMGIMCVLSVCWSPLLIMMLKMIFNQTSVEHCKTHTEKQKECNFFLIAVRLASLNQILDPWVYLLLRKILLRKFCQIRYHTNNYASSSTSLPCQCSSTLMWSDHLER
Experimental: as §1, §2, §5

| SMILES | EC50 (hTP) | EC50 (hEP4) | other results |
| --- | --- | --- | --- |
| COC(=O)COCCCCN1C(=O)CCC[C@@H]1/C=C/C(=O)Cc1ccccc1 [Example 1, {4-[(R)-2-Oxo-6-((E)-3-oxophenyl-but-1-enyl)-piperidin-1-yl]-butoxy}-Acetic acid methyl ester] | > 10000 nM |  |  |
| O=C(O)COC/C=C\CN1C(=O)CCC[C@@H]1/C=C/C(O)Cc1ccccc1 (stereo partly drawn) [Example 12, {(Z)-4-[(R)-2-((E)-3-Hydroxy-4-phenyl-but-1-enyl)-6-oxo-piperidin-1-yl]-but-2-enyloxy}-acetic acid] |  | > 10000 nM |  |
| NC(=O)COCCCCN1C(=O)CCC[C@@H]1/C=C/C(O)Cc1cccc(Cl)c1 (stereo partly drawn) [Example 18, 2-(4-{(R)-2-[(E)-4-(3-Chlorophenyl)-3-hydroxy-but-1 enyl]-6-oxo-piperidin-1-yl}-butoxy)-acetamide] | > 10000 nM |  |  |
| O=C(O)COCCCCN1C(=O)CCC[C@@H]1/C=C/C(O)Cc1cccc(Cl)c1 (stereo partly drawn) [Example 17, (4-{(R)-2-[(E)4(3-Chlorophenyl)-3-hydroxy-but-1-enyl]-6-oxo-piperidin-1-yl}-butoxy)-acetic acid] |  |  | EC50 (hEP1): > 10000 nM; EC50 (hEP2): > 10000 nM |
| O=C(O)COC/C=C\CN1C(=O)CCC[C@@H]1CCC(O)Cc1ccccc1 (stereo partly drawn) [Example 16, {(Z)-4-[(R)-2-(3-Hydroxy-4-phenyl-butyl)-6-oxo-piperidin-1-yl]-but-2-enyloxy}-acetic acid] |  | > 10000 nM |  |
| O=C(O)COCCCCN1C(=O)CCC[C@@H]1CCC(=O)Cc1ccccc1 [Example 10, {4-[(R)-2-Oxo-6-(3-oxo-4-phenyl-butyl)-piperidin-1-yl]-butoxy}-acetic acid] | > 10000 nM | 1970 nM |  |
| COC(=O)COCCCCN1C(=O)CCC[C@@H]1CCC(=O)Cc1ccccc1 [Example 9, {4-[(R)-2-Oxo-6-(3-oxo-4-phenyl-butyl)-piperidin-1-yl]-butoxy}-acetic acid methyl ester] |  | 7540 nM |  |
| O=C(O)COCCCCN1C(=O)CCC[C@@H]1CCC(O)Cc1ccccc1 (stereo partly drawn) [Example 6, {4-[(R)-2-(3-Hydroxy-4-phenyl-butyl)-6-oxo-piperidin-1-yl]-butoxy}-acetic acid] |  | > 10000 nM |  |
| COC(=O)COCCCCN1C(=O)CCC[C@@H]1/C=C/C(O)Cc1ccccc1 (stereo partly drawn) [Example 3, {4-[(R)-2-((E)-3-Hydroxy-4-phenyl-but-1-enyl)-6-oxo-piperidin-1-yl]-butoxy}-acetic acid methyl ester] |  | 1100 nM |  |
| O=C(O)COC/C=C\CN1C(=O)CCC[C@@H]1/C=C/C(=O)Cc1ccccc1 [Example 8, {(Z)-4-[(R)-2-Oxo-6-((E)-3-oxo-4-phenyl-but-1-enyl)-piperidin-1-yl]-but-2-enyloxy}-acetic acid] | > 10000 nM | 2560 nM |  |
| O=C(O)COCCCCN1C(=O)CCC[C@@H]1/C=C/C(=O)Cc1ccccc1 [Example 2, {4-[(R)-2-Oxo-6-((E)-3-oxo-4-phenyl-but-1-enyl)-piperidin-1-yl]-butoxy}-acetic acid] | 2260 nM | 300 nM | EC50 (hEP3A): > 10000 nM |
| COC(=O)COCCCCN1C(=O)CCC[C@@H]1CCC(O)Cc1ccccc1 (stereo partly drawn) [Example 5, {4-[(R)-2-(3-Hydroxy-4-phenyl-butyl)-6-oxo-piperidin-1-yl]-butoxy}-acetic acid methyl ester] |  | > 10000 nM | EC50 (hEP3A): > 10000 nM |
| O=C(O)COCCCCN1C(=O)CCC[C@@H]1/C=C/C(O)Cc1ccccc1 (stereo partly drawn) [Example 4, {4-[(R)-2-((E)-3-Hydroxy-4-phenyl-but-1-enyl)-6-oxo-piperidin-1-yl]-butoxy}-acetic acid] |  | 145 nM |  |
| O=C(O)COC/C=C\CN1C(=O)CCC[C@@H]1CCC(=O)Cc1ccccc1 [Example 14, {(Z)-4[(R)-2-Oxo-6-(3-oxo-4-phenyl-butyl)-piperidin-1-yl]-but-2-enyloxy}-acetic acid] | > 10000 nM | > 10000 nM |  |
